Molecules are shown by their SMILES.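 Interpolation was linear, between the two tested concentrations surrounding the appropriate level; five concentrations were tested over 48 hours in 96-well plates. GI50 is the concentration that inhibits growth by half.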 The source made the active and inactive calls. No stated cut-off is given here; in the data, active = GI50 up to about 1.1 µM and inactive = higher.

Here are results for eleven compounds from ChEMBL document CHEMBL1201862, “PubChem BioAssay data set” (2004).

Among the test systems are EKVX; Hs-578T; MDA-N; MOLT-4; NCI-H226; NCI-H23; OVCAR-3; OVCAR-5; RXF 393; SF-268; SF-539; SK-MEL-5; SN12C; SR; TK-10; U-251; UACC-62; CCRF-CEM; HCT-116; LOX IMVI.
What all share (assay): NCI-60 cell line screen, 48 h

As to `CCOC(=O)c1ccc(N2C(=S)N(C(=O)c3ccccc3)C(=N/c3ccccc3)/C2=N\c2ccccc2)cc1`, the GI50 with EKVX was > 100 µM (inactive); in the test on Hs-578T it was 58.3 µM (inactive); in the test on MDA-N, 26.5 µM (inactive); in the test on MOLT-4 it was > 10 µM (inactive); in the test with NCI-H226 it was 22.9 µM (inactive); with NCI-H23, 56.1 µM (inactive). Moreover, the GI50 in the test on OVCAR-3 was 25.3 µM (inactive); in the test with OVCAR-5, > 100 µM (inactive); in the test on RXF 393, > 10 µM (inactive); in the test on SF-268 it was > 100 µM (inactive); in the test on SF-539 it was 63.2 µM (inactive); in the test with SK-MEL-5 it was 50 µM (inactive). The GI50 is > 100 µM (inactive) in the test with SN12C; > 100 µM (inactive) with SR; 62.1 µM (inactive) in the test on TK-10; 25.5 µM (inactive) with U-251; 29.6 µM (inactive) in the test with UACC-62.

`Nc1c(S(=O)(=O)O)cc(S(=O)(=O)O)c2ccc(/N=N/c3ccccc3)c(O)c12`: the GI50 in the test with CCRF-CEM, in the test with EKVX, in the test on HCT-116, in the test with Hs-578T, in the test on LOX IMVI and in the test on MDA-N was > 100 µM (inactive) each time. The GI50 in the test with NCI-H226, in the test with NCI-H23, in the test on OVCAR-3, with OVCAR-5, in the test with RXF 393 and with SF-268 was > 100 µM (inactive) each time. Besides, the GI50 with SF-539, in the test with SK-MEL-5, in the test on SN12C, in the test on SR, in the test with TK-10 and in the test on U-251 was > 100 µM (inactive) each time. In addition, in the test on UACC-62, the GI50 is > 100 µM (inactive).

Turning to `C=C1CCCCCCCCCCC12SCCC2CCCCSC` (stereo unspecified), the GI50 with EKVX was 34.6 µM (inactive); in the test on HCT-116, 17.8 µM (inactive); with Hs-578T, 39.4 µM (inactive); in the test on LOX IMVI, 19.5 µM (inactive); in the test on MDA-N, 34.4 µM (inactive); with MOLT-4 it was 21.3 µM (inactive). In addition, the GI50 with NCI-H226 was 20.4 µM (inactive); in the test with NCI-H23, 25.7 µM (inactive); in the test on OVCAR-3 it was 16.7 µM (inactive); in the test on OVCAR-5 it was 20 µM (inactive); with RXF 393 it was 29.2 µM (inactive); in the test on SF-268 it was 28.7 µM (inactive). Further, the GI50 in the test with SF-539 was 20.6 µM (inactive); in the test with SK-MEL-5, 17.3 µM (inactive); with SN12C it was 24.3 µM (inactive); in the test with SR it was 33.1 µM (inactive); with U-251, 17.9 µM (inactive); in the test with UACC-62, 27.1 µM (inactive).

As for `CC1(C)[C@H]2Cc3cc(-c4cc5c(cn4)[C@@H]4C[C@H]([C@@H]5[C@@H]5c6cc(-c7cc8c(cn7)[C@@H]7C[C@H](C8)C7(C)C)ncc6[C@@H]6C[C@H]5C6(C)C)C4(C)C)ncc3[C@@H]1C2`, the GI50 with CCRF-CEM, with EKVX, in the test on HCT-116, with Hs-578T, in the test with LOX IMVI and in the test on MDA-N was > 100 µM (inactive) in each case. Besides, the GI50 with MOLT-4, with NCI-H226, in the test with NCI-H23, in the test with OVCAR-3, in the test on OVCAR-5 and with RXF 393 was > 100 µM (inactive) each time. In addition, the GI50 in the test on SF-268, with SK-MEL-5, with SN12C, with SR, in the test on U-251 and with UACC-62 was > 100 µM (inactive) throughout.

`COC(=O)C12CCC(C(=O)OC)(Cc3c(c4ccccc4n3S(=O)(=O)c3ccccc3)C1)C2=O` (stereo unspecified): the GI50 was 1 µM (active) in the test with CCRF-CEM; > 100 µM (inactive) in the test on EKVX; > 46.6 µM (inactive) in the test with Hs-578T; > 59.3 µM (inactive) with LOX IMVI; > 100 µM (inactive) with MDA-N; > 100 µM (inactive) with NCI-H23. In addition, the GI50 was > 61.8 µM (inactive) in the test on OVCAR-3; > 32.2 µM (inactive) with OVCAR-5; 1.61 µM (inactive) in the test on RXF 393; > 61 µM (inactive) in the test with SF-268; > 40.6 µM (inactive) in the test with SF-539; 9.29 µM (inactive) in the test on SK-MEL-5. Further, the GI50 was > 100 µM (inactive) with SN12C; > 100 µM (inactive) with SR; > 56.2 µM (inactive) in the test on TK-10; > 100 µM (inactive) in the test on U-251; > 40.5 µM (inactive) in the test on UACC-62.

Regarding `O=C(NCCCCCCCCNC(=O)Nc1cccc2ccccc12)Nc1cccc2ccccc12`, the GI50 in the test on CCRF-CEM was 12.9 µM (inactive); in the test on EKVX, 62.1 µM (inactive); in the test on HCT-116, 9.55 µM (inactive); with Hs-578T, 14.2 µM (inactive); with LOX IMVI, 8.34 µM (inactive); with MDA-N, 20.3 µM (inactive). Also, the GI50 in the test on MOLT-4 is 41.6 µM (inactive); with NCI-H23, 30.4 µM (inactive); in the test on OVCAR-3, 36.5 µM (inactive); in the test with OVCAR-5, 41.7 µM (inactive); with RXF 393, 22.6 µM (inactive); with SF-268, 14.1 µM (inactive). For the same compound, the GI50 with SF-539 is 10.8 µM (inactive); in the test on SK-MEL-5 it was 42.3 µM (inactive); with SN12C, 18.4 µM (inactive); in the test with SR, > 10 µM (inactive); in the test on TK-10 it was 43.7 µM (inactive); in the test with U-251, 2.76 µM (inactive). In addition, in the test on UACC-62, the GI50 is 32.9 µM (inactive).

Take `CN(C)c1ccc(/C=C2\N=C(c3ccccc3)N(/N=C3\C(=O)Nc4ccccc43)C2=O)cc1`: the GI50 in the test on CCRF-CEM was 37.2 µM (inactive); with EKVX it was 27 µM (inactive); in the test with HCT-116, 57.3 µM (inactive); in the test on Hs-578T, 38.8 µM (inactive); in the test on LOX IMVI, 28.8 µM (inactive); with MDA-N it was 32.7 µM (inactive). Also, the GI50 is 32 µM (inactive) with MOLT-4; > 100 µM (inactive) with NCI-H23; 16.8 µM (inactive) with OVCAR-3; > 100 µM (inactive) with OVCAR-5; 45.1 µM (inactive) with RXF 393; 39.6 µM (inactive) in the test on SF-268. The GI50 was > 100 µM (inactive) with SF-539; 47.8 µM (inactive) with SK-MEL-5; 56.9 µM (inactive) in the test with SN12C; 27 µM (inactive) in the test on SR; 53.2 µM (inactive) in the test with TK-10; 76.6 µM (inactive) with U-251. For the same compound, the GI50 in the test on UACC-62 is > 100 µM (inactive).

With `NCC(=O)NC1(c2cc3ccccc3s2)CCCCC1`, the GI50 was 22 µM (inactive) in the test with CCRF-CEM; 19.9 µM (inactive) in the test on EKVX; 42.7 µM (inactive) in the test on HCT-116; 27.7 µM (inactive) in the test on Hs-578T; 51.1 µM (inactive) in the test with LOX IMVI; 38.8 µM (inactive) in the test with MDA-N. The GI50 in the test with NCI-H226 was 18.7 µM (inactive); with NCI-H23 it was 71.4 µM (inactive); in the test with OVCAR-3, > 100 µM (inactive); in the test with OVCAR-5, 40.5 µM (inactive); with RXF 393, 42.3 µM (inactive); with SF-268, 28.4 µM (inactive). Also, the GI50 in the test with SF-539 was 50.9 µM (inactive); in the test with SK-MEL-5 it was 17.8 µM (inactive); with SN12C, 79.1 µM (inactive); in the test with SR it was < 0.01 µM (active); with TK-10 it was 36 µM (inactive); in the test with UACC-62, 19.7 µM (inactive).

For `Oc1ccc2ccccc2c1CN(Cc1c(O)ccc2ccccc12)C1CCCCC1`, the GI50 in the test on CCRF-CEM was 27.3 µM (inactive); with EKVX it was 15.4 µM (inactive); in the test with HCT-116 it was 15.8 µM (inactive); in the test on Hs-578T it was 26.4 µM (inactive); with LOX IMVI, 15 µM (inactive); in the test on MDA-N it was 15.4 µM (inactive). The GI50 was 16.6 µM (inactive) in the test with MOLT-4; 17.1 µM (inactive) in the test with NCI-H23; 19.1 µM (inactive) in the test on OVCAR-3; 41.9 µM (inactive) with OVCAR-5; 18.2 µM (inactive) in the test with RXF 393; 14.1 µM (inactive) with SF-268. Besides, the GI50 with SF-539 was 16 µM (inactive); in the test with SK-MEL-5 it was 14.9 µM (inactive); in the test with SN12C it was 14.4 µM (inactive); in the test with SR it was 21.3 µM (inactive); in the test with TK-10 it was 17.3 µM (inactive); with U-251, 20.2 µM (inactive). Moreover, the GI50 in the test with UACC-62 was 16.8 µM (inactive).

`COc1ccccc1/C=N/Nc1nnc2c3ccccc3c3ncccc3c2n1`: the GI50 with CCRF-CEM is 17.6 µM (inactive); in the test on EKVX it was 43.1 µM (inactive); with HCT-116, 72.4 µM (inactive); in the test with Hs-578T it was 21 µM (inactive); with LOX IMVI, 64.1 µM (inactive); in the test with MDA-N, > 100 µM (inactive). Besides, the GI50 in the test on MOLT-4 is 60.3 µM (inactive); with NCI-H23, > 100 µM (inactive); with OVCAR-3, 47.2 µM (inactive); with OVCAR-5 it was 79.4 µM (inactive); in the test on RXF 393, 18.1 µM (inactive); in the test with SF-268, 29.9 µM (inactive). The GI50 with SF-539 is 19 µM (inactive); in the test with SK-MEL-5, 89.5 µM (inactive); with SN12C, 87.5 µM (inactive); in the test on SR, 39.9 µM (inactive); in the test with TK-10, 28.6 µM (inactive); in the test on U-251, 37.3 µM (inactive). In addition, the GI50 in the test on UACC-62 is 48.8 µM (inactive).

Take `CCOC(=O)CCC(NC(=O)c1ccc(Nc2nc3ccccc3n3cccc23)cc1)C(=O)OCC` (stereo unspecified): the GI50 in the test with CCRF-CEM is 54.8 µM (inactive); in the test on EKVX it was 41.5 µM (inactive); in the test on HCT-116, 31.2 µM (inactive); in the test with Hs-578T it was 35.6 µM (inactive); with LOX IMVI, 26.1 µM (inactive); in the test with MDA-N, 28.4 µM (inactive). Besides, the GI50 was 18.3 µM (inactive) in the test with MOLT-4; 35.9 µM (inactive) in the test on NCI-H23; 18.2 µM (inactive) in the test on OVCAR-3; 45.6 µM (inactive) in the test on OVCAR-5; 12.2 µM (inactive) in the test with RXF 393; 37.8 µM (inactive) with SF-268. Also, the GI50 with SF-539 is 18.8 µM (inactive); in the test on SK-MEL-5 it was 31 µM (inactive); in the test with SR, 15.3 µM (inactive); in the test with TK-10 it was 22.5 µM (inactive); with U-251, 23 µM (inactive); with UACC-62, 23.1 µM (inactive).
